Data published in patent publication US4853463A, “Amino acid derivatives” (Kissei Pharmaceutical Co., Ltd., priority 1985, dated 1989).

What was measured:
human renin [1] = target: T1, human renin (Homo sapiens, UniProt P00797); test: Renin inhibitory effect in a human high renin plasma; type: biochemical; parameters: human high renin plasma; from tissue; host or cells: human high renin plasma; settings: phosphate buffer pH 7.0, 37° C., 60 minutes
T1 sequence (P00797 67-406): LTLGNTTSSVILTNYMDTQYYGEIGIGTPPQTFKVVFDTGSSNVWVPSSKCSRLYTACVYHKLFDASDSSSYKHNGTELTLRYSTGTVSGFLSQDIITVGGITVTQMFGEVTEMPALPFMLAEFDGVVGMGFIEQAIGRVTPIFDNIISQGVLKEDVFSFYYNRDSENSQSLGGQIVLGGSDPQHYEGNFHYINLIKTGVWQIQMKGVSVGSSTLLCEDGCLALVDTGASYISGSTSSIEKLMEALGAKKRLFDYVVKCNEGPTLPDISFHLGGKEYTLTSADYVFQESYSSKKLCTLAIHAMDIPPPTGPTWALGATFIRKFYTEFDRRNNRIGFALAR
Method: Renin inhibitory effect in a human high renin plasma
The mixture consisted of 500 μl of human high renin plasma, 50 μl of 20 mM L-phenylalanyl-L-alanyl-L-prolin, an angiotensin converting enzyme inhibitor, 350 μl of 0.5 M phosphate buffer (pH 7.0) containing 14 mM EDTA·2Na and 0.3% neomycin and 100 μl of appropriate concentration of amino acid compound of the present invention dissolved in DMSO or DMSO as a control. A 200 μl sample was taken out from the solution, and was cooled at 4° C. in an ice bath. The remaining sample (800 μl) was incubated for 60 minutes at 37° C. in a water bath. A 200 μl of sample was taken out from the incubated mixture, and chilled immediately in an ice bath. The amount of angiotensin I produced in both samples was determined by radioimmunoassay, and the net amount was estimated as a difference between the samples incubated at 37° C. and the sample cooled at 4° C.
The inhibitory effect was calculated by the following equation: [formula]
The molar concentration which produced 50% inhibition (IC50) was calculated from the inhibition value obtained, and the results are shown below. [drawing 32]

human renin [2] = target: T1, human renin; test: Human renin-sheep renin substrate reaction system in vitro; type: biochemical; settings: purified human renin, semipurified sheep renin substrate, pH 7.4, 37° C., 15 minutes
Method: Human renin-sheep renin substrate reaction system in vitro
To a mixture containing 200 μl of a 125 mM pyrophosphate buffer (pH 7.4), 25 μl of a 20 mM aqueous solution of L-phenylalanyl-L-alanyl-L-prolin as an angiotensin converting enzyme inhibitor, 50 μl of semipurified sheep renin substrate (2000 ng angiotensin I/ml), 50 μl of dimethyl sulfoxide solution of an amino acid derivative of the present invention or 50 μl of dimethyl sulfoxide as a control and 150 μl of deionized water was added 25 μl of purified human renin (20-30 ng angiotensin I/ml/hr). The mixture was incubated for 15 minutes on a water bath at 37° C., and the reaction mixture was allowed to stand for 5 minutes on a water bath at 100° C. to stop the reaction. After cooling, 200 μl of the solution were taken out and the amount of angiotensin I produced by the addition of renin was determined by radioimmunoassay. The inhibitory effect was calculated by the following equation. [formula]
The molar concentration which produced a 50% inhibition (IC50) was calculated from the inhibition value obtained, and the results are shown below. [drawing 19]

[3] = Hypotensive effect in marmoset; type: in vivo, common marmoset; settings: 30 mg/kg oral, furosemide-treated high renin marmoset, Control 84.3 mmHg
Method: Hypotensive effect in marmoset
The experiment was carried out by using common marmoset as described in K. G. Hofbauer et al., Clinical and Experimental hypertension, Vol. A5, Nos. 7 & 8 (1983), pages 1237-1247.
Furosemide was orally administered three times to common marmoset at 15 mg per kilogram per day every other day to create a high renin state. Blood pressure of conscious marmoset was measured 3 days after the last administration of furosemide.
Measurement of blood pressure
A conscious male marmoset weighing 360 g was binded on a monkey chair, and tailarterial pressure was recorded on a pretismograph. The amino acid compound of the present invention, administred orally using a catheter.
(a) Compound: Isopropyl (2RS, 3S)-3-{N-[2-(1-naphthylmethyl)-3-(morpholinocarbonyl)propionyl]-L-alanyl}amino-2-hydroxy-5-methylhexanoate

human renin [4] = target: T1, human renin; parameters: human high renin plasma; from tissue; host or cells: human high renin plasma; settings: reported at 1986 meetings; cited from earlier work

SMILES | IC50 (human renin [1]) [nM] | IC50 (human renin [2]) [nM] | further results
CC(C)C[C@H](NC(=O)CNC(=O)C(CC(=O)N1CCOCC1)Cc1cccc2ccccc12)C(O)C(=O)OC(C)C (stereo partly drawn) [compound 9] | 200 | 390 | 
CC(C)C[C@H](NC(=O)C(CC(=O)N1CCOCC1)Cc1cccc2ccccc12)C(=O)N[C@@H](CC(C)C)C(O)C(=O)OC(C)C (stereo partly drawn) [compound 2] | 16 | 14 | 
CC(C)C[C@H](NC(=O)[C@@H](NC(=O)C(CC(=O)N1CCOCC1)Cc1cccc2ccccc12)C(C)C)C(O)C(=O)OC(C)C (stereo partly drawn) [compound 5] | 3.3 | 6.6 | 
COC(=O)CN(C)C(=O)CC(Cc1cccc2ccccc12)C(=O)N[C@@H](C)C(=O)N[C@@H](CC(C)C)C(O)C(=O)OC(C)C (stereo partly drawn) [compound 12] | 13 | 15 | 
CC(C)C[C@H](NC(=O)CCNC(=O)C(CC(=O)N1CCOCC1)Cc1cccc2ccccc12)C(O)C(=O)OC(C)C (stereo partly drawn) [compound 10] | 46 | 130 | 
CC(C)C[C@H](NC(=O)[C@H](C)NC(=O)C(CC(=O)N1CCOCC1)Cc1cccc2ccccc12)C(O)C(=O)OC(C)C (mixture of isomers) [No. 1, Isopropyl (2RS, 3S)-3-{N-[2-(1-naphthylmethyl)-3-(morpholinocarbonyl)propionyl]-L-alanyl}amino-2-hydroxy-5-methylhexanoate] | 20 | 26 | Blood pressure ([3]; 1 hour after administration): 75.8 mmHg; Blood pressure ([3]; 2 hours after administration): 70.0 mmHg; Blood pressure ([3]; 3 hours after administration): 70.0 mmHg; Blood pressure ([3]; 5 hours after administration): 70.0 mmHg; Blood pressure ([3]; 7 hours after administration): 72.6 mmHg
CC(C)C[C@H](NC(=O)[C@H](CO)NC(=O)C(CC(=O)N1CCOCC1)Cc1cccc2ccccc12)C(O)C(=O)OC(C)C (stereo partly drawn) [compound 8] | 7.2 | 26 | 
COC(=O)C(O)[C@H](CC(C)C)NC(=O)[C@H](CC(C)C)NC(=O)C(CC(=O)N1CCOCC1)Cc1cccc2ccccc12 (mixture of isomers) [No. 3, Methyl (2RS, 3S)-3-{N-[2-(1-naphthylmethyl)-3-(morpholinocarbonyl)propionyl]-L-leucyl}amino-2-hydroxy-5-methylhexanoate] | 11 | 30 | 
COC(=O)C(O)C(CC(C)C)NC(=O)[C@H](Cc1c[nH]cn1)NC(=O)C(CC(=O)NCCc1ccccc1)Cc1cccc2ccccc12 (stereo partly drawn) |  |  | Human renin inhibitory activity (human renin [4]): human renin inhibitory activity
CC(C)CCNC(=O)C[C@H](O)[C@H](CC(C)C)NC(=O)[C@H](CC(C)C)NC(=O)C(CC(=O)N1CCOCC1)Cc1cccc2ccccc12 (stereo partly drawn) [No. 4, N-[2-(1-Naphthylmethyl)-3-(morpholinocarbonyl)-propionyl]-L-leucyl-statiyl isoamylamide] | 61 | 80 | 
CC(C)C[C@H](NC(=O)[C@H](Cc1ccccc1)NC(=O)C(CC(=O)N1CCOCC1)Cc1cccc2ccccc12)C(O)C(=O)OC(C)C (stereo partly drawn) [compound 6] | 140 | 48 | 
CC(C)C[C@H](NC(=O)[C@H](Cc1c[nH]c2ccccc12)NC(=O)C(CC(=O)N1CCOCC1)Cc1cccc2ccccc12)C(O)C(=O)OC(C)C (stereo partly drawn) [compound 7] | 510 | 290 | 
COC(=O)[C@@H]1CCCN1C(=O)CC(Cc1cccc2ccccc12)C(=O)N[C@@H](C)C(=O)N[C@@H](CC(C)C)C(O)C(=O)OC(C)C (stereo partly drawn) [compound 11] | 44 | 59 | 
